# Data taken from BindingDB's records for doi:10.1021/jm0101702 (Abbott Laboratories, 2001).
# Assay: Inhibition of VCAM-1 in human endothelial cells
row,Compound,IC50
1,"CCOC(=O)c1cccc(Oc2cncc3sc(C(N)=O)cc23)c1 [3-(2-Carbamoyl-thieno[2,3-c]pyridin-4-yloxy)-benzoic acid ethyl ester]",> 1000 nM
2,"NC(=O)c1cc2c(Oc3ccc(Cl)cc3Br)cncc2s1 [4-(2-Bromo-4-chloro-phenoxy)-thieno[2,3-c]pyridine-2-carboxylic acid amide]",330 nM
3,"CCOC(=O)c1ccc(Oc2cncc3sc(C(N)=O)cc23)cc1 [4-(2-Carbamoyl-thieno[2,3-c]pyridin-4-yloxy)-benzoic acid ethyl ester]",> 1000 nM
4,"NC(=O)c1cc2c(Oc3cccc(Br)c3)cncc2s1 [4-(3-Bromo-phenoxy)-thieno[2,3-c]pyridine-2-carboxylic acid amide]",> 1000 nM
5,"NC(=O)c1cc2c(Oc3cccc(C(F)(F)F)c3)cncc2s1 [4-(3-Trifluoromethyl-phenoxy)-thieno[2,3-c]pyridine-2-carboxylic acid amide]",> 1000 nM
6,"Cc1cc(Cl)ccc1Oc1cncc2sc(C(N)=O)cc12 [4-(4-Chloro-2-methyl-phenoxy)-thieno[2,3-c]pyridine-2-carboxylic acid amide]",> 1000 nM
7,"NC(=O)c1cc2c(Oc3ccc(Cl)c(F)c3)cncc2s1 [4-(4-Chloro-3-fluoro-phenoxy)-thieno[2,3-c]pyridine-2-carboxylic acid amide]",> 1000 nM
8,"CCOCCOCCOCC(F)(F)c1ccc(Oc2cncc3sc(C(=O)NC)cc23)cc1 [4-(4-{2-[2-(2-Ethoxy-ethoxy)-ethoxy]-1,1-difluoro-ethyl}-phenoxy)-thieno[2,3-c]pyridine-2-carboxylic acid methylamide]",170 nM
9,"NC(=O)c1cc2c(Oc3ccc(C(O)CO)cc3)cncc2s1 (centres undefined) [4-[4-(1,2-Dihydroxy-ethyl)-phenoxy]-thieno[2,3-c]pyridine-2-carboxylic acid amide]",930 nM

# The next lines start with the values.
row,IC50,Compound
1,64 nM,"NC(=O)c1cc2c(Oc3ccc(N)cc3)cncc2s1 [4-(4-Amino-phenoxy)-thieno[2,3-c]pyridine-2-carboxylic acid amide]"
2,19 nM,"CNC(=O)c1cc2c(Oc3ccc(-n4ccnc4)cc3)cncc2s1 [4-(4-Imidazol-1-yl-phenoxy)-thieno[2,3-c]pyridine-2-carboxylic acid methylamide]"
3,> 10 nM,"NC(=O)c1cc2c(Oc3ccc(I)cc3)cncc2s1 [4-(4-Iodo-phenoxy)-thieno[2,3-c]pyridine-2-carboxylic acid amide]"
4,> 100 nM,"CC(C)c1ccc(Oc2cncc3sc(C(N)=O)cc23)cc1 [4-(4-Isopropyl-phenoxy)-thieno[2,3-c]pyridine-2-carboxylic acid amide]"
5,23 nM,"COCc1ccc(Oc2cncc3sc(C(N)=O)cc23)cc1 [4-(4-Methoxymethyl-phenoxy)-thieno[2,3-c]pyridine-2-carboxylic acid amide]"
6,> 24 nM,"CNC(=O)c1cc2c(Oc3ccc(COC)cc3)cncc2s1 [4-(4-Methoxymethyl-phenoxy)-thieno[2,3-c]pyridine-2-carboxylic acid methylamide]"
7,> 1000 nM,"CNC(=O)c1cc2c(Oc3ccc(N4CCOCC4)cc3)cncc2s1 [4-(4-Morpholin-4-yl-phenoxy)-thieno[2,3-c]pyridine-2-carboxylic acid methylamide]"
8,240 nM,"CNC(=O)c1cc2c(Oc3ccc(-n4cncn4)cc3)cncc2s1 [4-(4-[1,2,4]Triazol-1-yl-phenoxy)-thieno[2,3-c]pyridine-2-carboxylic acid methylamide]"
9,> 1000 nM,"CNC(=O)c1cc2c(Oc3ccc(C=CC(=O)NCCc4cnc[nH]4)cc3)cncc2s1 [4-(4-{2-[2-(1H-Imidazol-4-yl)-ethylcarbamoyl]-vinyl}-phenoxy)-thieno[2,3-c]pyridine-2-carboxylic acid methylamide]"
10,79 nM,"CNC(=O)c1cc2c(Oc3ccc(-c4ccccc4)cc3)cncc2s1 [4-(Biphenyl-4-yloxy)-thieno[2,3-c]pyridine-2-carboxylic acid methylamide]"
